This note sets out measurements from patent US11685726B2, “Pharmaceutical compositions of 6-(2-(2H-tetrazol-5-yl)ethyl)-6-fluorodecahydroisoquinoline-3-carboxylic acid and ester derivatives thereof” (Sea Pharmaceuticals LLC, priority 2020, dated 2023).

This series can be described thus: Rat behavior observations for signs of motor impairment by trained observer. It is filed as in vivo. The conditions noted are these: 6 mg/kg subcutaneous, rats, 30 minute observation period. Here is the method: Rat behavior pharmacology observations for signs of motor impairment by trained observer. Rats were monitored after dosing for any signs of impairment by Compound 1 administered as 6 mg/kg dose by subcutaneous route.

Each structure is given as a SMILES string.

As to `O=C(O)[C@@H]1C[C@H]2C[C@@](F)(CCc3nnn[nH]3)CC[C@H]2CN1` [Compound 1, (3S,4aS,6S,8aR)-6-fluoro-6-[2-(1H-1,2,3,4-tetrazol-5-yl)ethyl]-decahydroisoquinoline-3-carboxylic acid], the “signs of motor impairment / tolerability or neurological changes” value was “No tolerability or neurological changes were observed”.
